For assay [1], the system named is UMUC3 cells. Kind of assay: IC-80 value of PARPi in UMUC3 cells. The format is cell-based. The settings on record: Homo sapiens. The protocol:
Seeding of UMUC-3: 3000 cells were seeded per well in 12-well plates and grown over-night in DMEM Medium containing 10% FCS at 37° C. Inhibitor-treatment of cell occurred 24 h past seeding and again 1 hour after infection by adding indicated concentration to the medium. Infection of cells took place 24 h past inhibitor-treatment. Fixation and SRB-staining took place at 1-6 days post infection (dpi: days post infection). 160 nM PARPi correspond to the IC-80 value in UMUC3 cells.

Assay [2] deals with T24 cells. Kind of assay: IC-80 value of PARPi in T24 cells. The format is cell-based. The settings on record: Homo sapiens, T-24. On the procedure: 3000 T24 cells were seeded per well in 12-well plates and grown over-night in RPMI Medium containing 10% FCS at 37° C. Inhibitor-treatment of cells occurred 24 h past cell seeding and again 1 hour after infection by adding indicated concentration to the medium. Infection of cells took place 24 h past inhibitor-treatment in 250 μl Medium without serum. Fixation and SRB-staining took place at 1-5 days post infection (dpi: days post infection). 15 nM PARPi correspond to the IC-80 value in T24 cells.

The next assay has as its system dl703. Nature of the assay: DNA-replication analysis of dl703 in UMUC cells treated with cell cycle inhibitors (fiber qPCR). The format is cell-based, Mastadenovirus, Type C, Serotype 5. The protocol:
To investigate the differences in replication of d1703 (Mantwill et al. 2013, Journal of Translational Medicine, 11, 216) under different treatment conditions, DNA-replication analysis was performed. 100.000 UMUC cells were seeded in 6-well plates and grown in DMEM medium containing 10% FCS in 5% CO2 conditions at 37° C. 24 hours post seeding cells were treated for 24 hours with 10 μM Lee (Ribociclib), 1 μM CI-1040, 10 μM Nutlin-3a and 10 μM Roscovertine and again after infection adding an appropriate amount of inhibitors to the medium. Infection with 50 MOI dl703 (Mastadenovirus, Type C, Serotype 5 with a 3.2 kb sized deletion in E1 region) took place 24 hours post treatment. After 4 and 48 hours post infection DNA were isolated and qPCR was performed using specific primers for the viral fiber gene. Fiber fwd. 5′-[…]-3′; Fiber rev. 5′-[…]-3′.
(In general: In qPCR the cycle at which signal appears reflects the starting amount.)

The subject of assay [3] is UMUC3 cells. Kind of assay: Cell cycle analysis (EdU/PI flow cytometry) of UMUC3 cells. The class given is cell-based, human. Conditions: 48 hours; Roscovetine 10 μM, CI-1040 1 μM, Nutlin-3a 10 μM, LEE011 10 μM. The protocol: FIG. 10 is a bar diagram showing cell cycle distribution in UMUC3 cells, measured 48 hours post treatment, whereby the concentrations of the CDK4/6 inhibitors was as follows: Roscovetine: 10 μM, CI-1040: 1 μM, Nutlin-3a: 10 μM, and LEE011: 10 μM.
For cell cycle analysis cells were seeded in 6 well plates (2,5×10E4 c/well). 8 hours before infection with dl703, cells were treated with indicated concentration of cell cycle inhibitors. After infection with 10 MOI dl703 cells were again treated for 48 hours. Untreated cells and dl703 infected cells only, served as control. 48 h post infection cells were harvest by trypsinization and fixed with 80% ethanol while vortexing. To investigate the cell cycle status, fixed cells were centrifuged 5 min at RT and 300 g and ethanol was aspirated. Cells were resuspended and washed with 1%BSA-PBS (Bovine Serum Albumin) and again centrifuged. Cells were stained with EDU and cell cycle analysis were performed using the Click-iT™ Plus EdU Flow Cytometry Assay Kits, Catalog nos. C10632 from Thermo Fischer. In addition, after 3× times washing with 1% BSA/PBS cells were stained with PI (Propidium Iodine, 50 μg/ml). Measurement was directly performed after staining with a FACScalibur Flow Cytometry System. Data was analyzed with FlowJo software.
Background: Flow cytometry measures light scatter and fluorescence of single cells or particles in a stream.

In a further assay the test system is UMUC cells. Nature of the assay: Western blot of Rb, phRB and E2F-1 in UMUC cells treated with cell cycle inhibitors. The class given is cell-based, human. The settings on record: 24 hours post-treatment; for Rb, phRB and E2F-1 expression: indicated concentrations. The protocol:
Western Blot analysis of UMUC cells treated with indicated concentrations of CI-1040, Roscovitine, Nutlin-3a and LEE011 (Ribociclib). 1×10^6 cells were seeded in 10 cm dishes. 24 hours post-treatment proteins were isolated using 1% SDS buffer, to achieve the disruption of the nuclear membrane. All samples were drawn up several times into a syringe to disrupt the DNA and subsequently centrifuged at 30000 rpm at 4° C. for 30 minutes. The supernatant was transferred to a new reaction tube and directly used for further steps or stored at −80° C. To separate the proteins a sodium dodecyl sulfate polyacrylamide gel electrophoresis was performed. By means of electrophoresis for approximately two hours at 100V at 4° C., 40 μg of total proteins were loaded and probed against specific indicated antibodies.
Background: A western blot detects proteins with antibodies after separation by electrophoresis.

Assay [4] concerns T24 cells. Kind of assay: Potency assay (SRB) of T24 cells, XVir-N-31, Palbociclib and JQ-1. The format is cell-based, human. The protocol:
5000 T24 cells were seeded in 12 well plates and grown in 1 ml RPMI-Medium containing 10% FCS. Next day cells were treated with 500 nM Palbociclib and 300 nM JQ-1. 24 hours post treatment cells were infected with indicated MOIs of XVir-N-31 in 200 μl RPMI-Medium containing no FCS. After 1 hour 800 μl RPMI-Medium containing 10% FCS were added into each well. In addition, 500 nM Palbociclib and 300 nM JQ-1 were added to the medium. SRB-Staining took place 5 days post infection. Mock treated cells were set 100% cell survival.

In assay [5] the test system is SK-N-MC cells. Kind of assay: Potency assay (SRB) of SK-N-MC cells, XVir-N-31, Abemaciclib and JQ1. The format is cell-based. The settings on record: 500 nM JQ1 added to 200 nM Abemaciclib, XVir-N-31, 5 days post infection. The protocol: FIG. 16 is a bar diagram showing the result of a potency assay of SK-N-MC cells 5 days after exposure to XVir-N-31 alone, with 200 nM abemaciclib, 500 nM JQ1 or a combination of 200 nM abemaciclib and 500 nM JQ1, as percentage cell survival, whereby the cells were either not infected or infected with an MOI of 5, 10 or 20.
100.000 SK-N-MC cells/well were seeded in 12-well plates and grown in RPMI Medium containing 10% FCS at 5% CO2 at 37° C. Cells were treated with 200 nM Abemaciclib+500 nM JQ1 24 hours before and again 1 hour post infection by adding appropriate amount to the medium. Infection of XVir-N-31 took place in 500 μl in RPMI Medium without serum. SRB-Staining took place 5 days post infection. Mock treated cells were set 100% cell survival.

Assay [6] relates to SK-N-MC cells. Nature of the assay: Cell cycle distribution (propidium iodine) of SK-N-MC cells. The format is cell-based. The settings on record: 48 hours post treatment. The protocol: 48 hours post treatment cells were washed twice took place with PBS (containing RNase A,100 U/ml). Cells were trypsinized and centrifuged at 1500 rpm, 4° C. for 5 min. Cells are fixed by adding slowly 1 ml of ice-cold 80% Ethanol drop by drop to the pellet and incubated overnight. Staining was performed by adding 1 ml of staining solution (Propidium Iodine,50 μg/ml) to the cells and incubating 30-60 min at RT with gentle rocking. MK: MK-1775; LY: LY-2835219.

The test system of the next assay is 253J. Kind of assay: IC50 concentration of PD-0332991 in bladder cancer cell line 253J. The format is cell-based. The settings on record: Homo sapiens. On the procedure:
(§1) The class of CDK4/6 inhibitors as subject to Example 5 requires expression of RB. Therefore, three RB positive and two RB negative bladder cancer derived cell lines were used and the cells treated with the combination therapy. Cell lines were pretreated for 24 hours with an IC50 concentration of PD-0332991 (T24: 500 nM, RT112: 2000 nM, 253J: 100 nM) and infected with XVir-N-31(T24 M0150, 253J MOI 25, RT112 MOI450). Values are the average of at least 2 independent experiments. Error bars show the standard error. Four dpi, cell viability was measured using SRB assays (a, c). (b, d) Lysates of cells were prepared 3 dpi and a titer test was performed on Hek293 cells. Viral titer is shown as fold change relative to control

In a further assay the test system is T24. Kind of assay: IC50 concentration of PD-0332991 in bladder cancer cell line T24. The settings on record: Homo sapiens, T-24. The format is cell-based. On the procedure: as §1
Another assay has as its system RT112. Nature of the assay: IC50 concentration of PD-0332991 in bladder cancer cell line RT112. The settings on record: Homo sapiens, RT-112. The class given is cell-based. The protocol: as §1

The IC80 is the concentration needed for an effect of 80%. As usually defined, the IC50 is the midpoint of a concentration-inhibition curve.

With `Cn1ncnc1[C@H]1c2n[nH]c(=O)c3cc(F)cc(c23)N[C@@H]1c1ccc(F)cc1` [BMN673], the IC80 in the assay on UMUC3 cells [1] is 160 nM; in the assay on T24 cells [2], 15 nM.

As for `O=C(NOCC1CC1)c1ccc(F)c(F)c1Nc1ccc(I)cc1Cl` [CI-1040], the “viral DNA replication of dl703” value with dl703 (1 μM, 50 MOI dl703) was “much lower compared to Ribociclib treated cells”. Also, the cell cycle distribution result in the assay on UMUC3 cells [3] is given as “clear G1-arrest”. Moreover, the “E2F-1 as well as Rb and phRb expression” value in the assay on UMUC cells (1 μM) is on record as “induced inhibition”.

As to `Cc1sc2c(c1C)C(c1ccc(Cl)cc1)=N[C@@H](CC(=O)OC(C)(C)C)c1nnc(C)n1-2` [JQ1, thieno-triazolo-1-4-diazepine], the “cell killing capacity of XVir-N-31” value in the assay with T24 cells [4] (300 nM JQ-1 with 500 nM Palbociclib, low MOIs, 5 days post infection) was “increased the cell killing capacity”. In the assay with T24 cells [4] (mono-therapy with 300 nM JQ1, 10 and 20 MOI), the “cell killing of XVir-N-31” value is “did not increase cell killing”. Besides, the cell killing entry with SK-N-MC cells [5] was “did not increase cell killing”.

For the molecule `CN(C)C(=O)c1cc2cnc(Nc3ccc(N4CCNCC4)cn3)nc2n1C1CCCC1` [LEE011, ribociclib], the “increase of viral DNA replication of dl703” value with dl703 (10 μM, 50 MOI dl703, 48 hours post infection) is listed as around 100 fold. Also, the cell cycle distribution result with UMUC3 cells [3] was “clear G1-arrest”. The “E2F-1 as well as Rb and phRb expression” value in the assay on UMUC cells (10 μM) is “induced inhibition”.

As for `CCN1CCN(Cc2ccc(Nc3ncc(F)c(-c4cc(F)c5nc(C)n(C(C)C)c5c4)n3)nc2)CC1` [LY-2835219, abemaciclib], the cell cycle distribution result in the assay on SK-N-MC cells [6] was “no effect”.

Regarding `C=CCn1c(=O)c2cnc(Nc3ccc(N4CCN(C)CC4)cc3)nc2n1-c1cccc(C(C)(C)O)n1` [MK-1775], the cell cycle distribution result in the assay on SK-N-MC cells [6] (500 nM, alone) is “increase of cells in G2/M”.

With `COc1ccc(C2=N[C@@H](c3ccc(Cl)cc3)[C@@H](c3ccc(Cl)cc3)N2C(=O)N2CCNC(=O)C2)c(OC(C)C)c1` [Nutlin-3a], in the assay on UMUC3 cells [3], the cell cycle distribution result is listed as “only little or no effect”. For the same molecule, the “Rb, phRB and E2F-1 expression” value in the assay with UMUC cells is “no pronounced effect”.

`CC(=O)c1c(C)c2cnc(Nc3ccc(N4CCNCC4)cn3)nc2n(C2CCCC2)c1=O` [PD-0332991, palbociclib]: the results for the IC50 in the assay with 253J, in the assay on T24 and in the assay with RT112 were 100 nM, 500 nM and 2000 nM, respectively.

As to `CC[C@H](CO)Nc1nc(NCc2ccccc2)c2ncn(C(C)C)c2n1` [Roscovitine], the cell cycle distribution entry in the assay on UMUC3 cells [3] was “slight increase of G2/m arrested cells”. Moreover, in the assay on UMUC cells, the “Rb, phRB and E2F-1 expression” value is reported as “no pronounced effect”.

For the origin of these results see patent US20210038661A1, “TREATMENT OF TUMORS BY A COMBINATION OF AN ONCOLYTIC ADENOVIRUS AND A CDK4/6 INHIBITOR” (KLINIKUM RECHTS DER ISAR DER TECHNISCHEN UNIVERSITÄT MÜNCHEN, priority 2018, published 2021).
